Experimental data reported in paper PMC5290327, “SC83288 is a clinical development candidate for the treatment of severe malaria” (Nature Communications, 2017).
Entries after “also recorded” stand apart in the source; their conditions may differ.

Assays:
[1] = tested on: P. falciparum strain W2; test: Efficacy in the Pf/NSG mouse model; type: in vivo, Plasmodium falciparum; conditions: W2, humanized NSG mouse
[2] = tested on: FLT3(ITD); test: KINOMEscan; type: binding, human; conditions: 10 μM
Procedure: The KINOMEscan was carried out by Ambit (San Diego, USA) according to a previously established protocol. The experiment was based on a competition binding assay that quantitatively measures the ability of a compound to compete with an immobilized, active-site directed ligand. The assay is performed by combining three components: DNA-tagged kinase; immobilized ligand; and a test compound. The ability of the test compound to compete with the immobilized ligand is measured via quantitative PCR of the DNA tag.
For most assays, kinase-tagged T7 phage strains were grown in parallel in 24-well blocks in an Escherichia coli host derived from the BL21 strain. E. coli were grown to log-phase and infected with T7 phage from a frozen stock and incubated with shaking at 32 °C until lysis (90–150 min). The lysates were centrifuged (6,000g) and filtered (0.2 μm) to remove cell debris. The remaining kinases were produced in HEK-293 cells (Sigma Aldrich, catalogue number: 85120602) and subsequently tagged with DNA for quantitative PCR detection. […] The liganded beads were blocked with excess biotin and washed with blocking buffer (SeaBlock (Pierce), 1% bovine serum albumin, 0.05% Tween 20 and 1 mM dithiothreitol) to remove unbound ligand and to reduce non-specific phage binding. […] The kinase concentration in the eluates was measured by quantitative PCR.

[3] = in vivo; type: in vivo, rat; conditions: for C0: rat, in vivo, iv; for ALB / ALB/GLOB / ALP / ALT / AMY / AST / BUN / BUN/CREA / CA / CK / CRE / EOS / GLOB / GLU / HCT / HGB / K+ / MCH / MCHC / MCV / MPV / NA+ / NA/K / PHOS / PLT / RBC / RDW / TBIL / TP / WBC: 24h
Procedure: (§1) The maximal-tolerated i.v. bolus dose of SC83288 was at 30 mg kg^−1 body weight (extrapolated initial drug plasma concentration C0 of 65,600 ng ml^−1) and 15 mg kg^−1 body weight (C0 of 27,300 ng ml^−1) in rats and mice, respectively. Observed adverse effects included ataxia, respiratory symptoms and sleepiness. However, all treated animals fully recovered within 30 min after drug application. […] Increasing the dose to 45 mg kg^−1 body weight caused apnoea in rats. The no-observed-adverse-effect level and the no-observed-effect level in rats corresponded to a tested i.v. bolus dose of 22.5 mg kg^−1 body weight (C0 of 49,200 ng ml^−1) and 15 mg kg^−1 body weight (C0 of 32,800 ng ml^−1), respectively.
(§2) On the treatment day, all animals were weighed and the dosing volume was calculated for each individual animal according to its actual body weight. All animal were dosed once. Blood samples were taken at different time points and plasma was collected after centrifugation (10,000g, 10 min, 4 °C). Plasma samples were analysed by LC–MS/MS. […] All relevant observations were recorded. The PK studies in cynomolgus monkeys and beagle dogs were performed by the Laboratory of Pharmacology and Toxicology (LPT), Hamburg, and PK and toxicity studies in mice and rats were performed by the 4SC Discovery GmbH, Munich. PK parameters were obtained by a non-compartment analysis, using Kinetica 4.1 (Thermo Scientific).

[4] = Tolerability of i.v. bolus dose; type: in vivo, mouse; conditions: mice
Procedure: as §1
as §2, with “PK parameters were obtained by a non-compartment analysis, using Kinetica 4.1 (Thermo Scientific).” left out

For `CCCCN1CCN(C(=N)c2cccc(NC(=O)Nc3ccc(S(=O)(=O)NCc4ccc(S(N)(=O)=O)cc4)cc3)c2)CC1` [SC81458, 4-(3-(3-((4-butylpiperazin-1-yl)(imino)methyl)phenyl)ureido)-N-(4-sulfamoylbenzyl) benzenesulfonamide], the “In vivo logPRR” value [1] was 5.3 and the Remaining enzyme activity [2] was 85%.
For `COC(=O)N1CCN(C(=N)c2cccc(NC(=O)Nc3ccc(S(=O)(=O)NCc4ccc(S(N)(=O)=O)cc4)cc3)c2)CC1` [SC83288, methyl 4-(imino(3-(3-(4-(N-(4-sulfamoylbenzyl)sulfamoyl)phenyl)ureido)phenyl)methyl) piperazine-1-carboxylate], the “haematological and clinical biochemical parameters” value ([3]; 24 h post application) was “remained within normal range”, the safety margin ([3]; projected dosing regimen vs i.v. NOAEL in rats) was ~55 fold and the C0 ([3]; rats, 15 mg kg^−1 i.v. bolus (NOEL), read-out: extrapolated C0) was 32.8 µg/mL. For the same compound, the C0 ([3]; rats, 22.5 mg kg^−1 i.v. bolus (NOAEL), read-out: extrapolated C0) was 49.2 µg/mL, the C0 ([3]; rats, 30 mg kg^−1 i.v. bolus, read-out: extrapolated initial drug plasma concentration C0) was 65.6 µg/mL and the “maximal-tolerated i.v. bolus dose” value ([3]; rats) was 30 mg kg^−1 body weight. The “time to full recovery after drug application” value ([3]; rats and mice at maximal-tolerated dose) was ≤ 30 min, the adverse effect ([3]; rats, 45 mg kg^−1 body weight) was “apnea; also recorded: apnoea” and the ALB ([3]; rats, 15 mg/kg) was 4.9 g/dL. For the same compound, the ALB/GLOB ([3]; rats, 15 mg/kg) was 5.5 g/dL, the ALP ([3]; rats, 15 mg/kg) was 306 U l-1 and the ALT ([3]; rats, 15 mg/kg) was 51 U l-1. The AMY ([3]; rats, 15 mg/kg) was 909 U l-1, the AST ([3]; rats, 15 mg/kg) was 70 U l-1 and the BUN ([3]; rats, 15 mg/kg) was 14.7 mg/dL. It also gave a BUN/CREA ([3]; rats, 15 mg/kg) of 66.7 mg/dL, a CA ([3]; rats, 15 mg/kg) of 11.0 mg/dL and a CK ([3]; rats, 15 mg/kg) of 176 U l-1. The CRE ([3]; rats, 15 mg/kg) was 0.2 mg/dL, the EOS ([3]; rats, 15 mg/kg) was 0.4% and the GLOB ([3]; rats, 15 mg/kg) was 0.9 g/dL. It also gave a GLU ([3]; rats, 15 mg/kg) of 202 mg/dL, an HCT ([3]; rats, 15 mg/kg) of 40.9% and an HGB ([3]; rats, 15 mg/kg) of 14.3 g/dL. The “K+” value ([3]; rats, 15 mg/kg) was 5.1 mmol/L, the MCH ([3]; rats, 15 mg/kg) was 20.5 pg and the MCHC ([3]; rats, 15 mg/kg) was 35.1 g/dL. For the same compound, the MCV ([3]; rats, 15 mg/kg) was 58 µm3, the MPV ([3]; rats, 15 mg/kg) was 5.7 µm3 and the “NA+” value ([3]; rats, 15 mg/kg) was 136 mmol/L. The NA/K ([3]; rats, 15 mg/kg) was 26.7 mmol/L, the PHOS ([3]; rats, 15 mg/kg) was 9.4 mg/dL and the PLT ([3]; rats, 15 mg/kg) was 812 103 mm-3. For the same compound, the RBC ([3]; rats, 15 mg/kg) was 7.00 103 mm-3, the RDW ([3]; rats, 15 mg/kg) was 13.3% and the TBIL ([3]; rats, 15 mg/kg) was 0.4 mg/dL. For the same compound, the TP ([3]; rats, 15 mg/kg) was 5.8 g/dL, the WBC ([3]; rats, 15 mg/kg) was 16.7 103 mm-3 and the ALB ([3]; rats, 22.5 mg/kg) was 5.0 g/dL. The ALB/GLOB ([3]; rats, 22.5 mg/kg) was 6.7 g/dL, the ALP ([3]; rats, 22.5 mg/kg) was 399 U l-1 and the ALT ([3]; rats, 22.5 mg/kg) was 58 U l-1. The AMY ([3]; rats, 22.5 mg/kg) was 921 U l-1, the AST ([3]; rats, 22.5 mg/kg) was 79 U l-1 and the BUN ([3]; rats, 22.5 mg/kg) was 17.5 mg/dL. For the same compound, the BUN/CREA ([3]; rats, 22.5 mg/kg) was 72.5 mg/dL, the CA ([3]; rats, 22.5 mg/kg) was 11.0 mg/dL and the CK ([3]; rats, 22.5 mg/kg) was 97 U l-1. The CRE ([3]; rats, 22.5 mg/kg) was 0.3 mg/dL, the EOS ([3]; rats, 22.5 mg/kg) was 0.3% and the GLOB ([3]; rats, 22.5 mg/kg) was 0.8 g/dL. The GLU ([3]; rats, 22.5 mg/kg) was 160 mg/dL, the HCT ([3]; rats, 22.5 mg/kg) was 39.6% and the HGB ([3]; rats, 22.5 mg/kg) was 14.2 g/dL. For the same compound, the “K+” value ([3]; rats, 22.5 mg/kg) was 5.3 mmol/L, the MCH ([3]; rats, 22.5 mg/kg) was 21.0 pg and the MCHC ([3]; rats, 22.5 mg/kg) was 35.9 g/dL. The MCV ([3]; rats, 22.5 mg/kg) was 59 µm3, the MPV ([3]; rats, 22.5 mg/kg) was 5.9 µm3 and the “NA+” value ([3]; rats, 22.5 mg/kg) was 135 mmol/L. For the same compound, the NA/K ([3]; rats, 22.5 mg/kg) was 25.7 mmol/L, the PHOS ([3]; rats, 22.5 mg/kg) was 9.2 mg/dL and the PLT ([3]; rats, 22.5 mg/kg) was 847 103 mm-3. The RBC ([3]; rats, 22.5 mg/kg) was 6.77 103 mm-3, the RDW ([3]; rats, 22.5 mg/kg) was 13.3% and the TBIL ([3]; rats, 22.5 mg/kg) was 0.3 mg/dL. For the same compound, the TP ([3]; rats, 22.5 mg/kg) was 5.7 g/dL, the WBC ([3]; rats, 22.5 mg/kg) was 14.3 103 mm-3 and the ALB ([3]; rats, 30 mg/kg) was 5.4 g/dL. For the same compound, the ALB/GLOB ([3]; rats, 30 mg/kg) was 8.9 g/dL, the ALP ([3]; rats, 30 mg/kg) was 424 U l-1 and the ALT ([3]; rats, 30 mg/kg) was 58 U l-1. The AMY ([3]; rats, 30 mg/kg) was 962 U l-1, the AST ([3]; rats, 30 mg/kg) was 85 U l-1 and the BUN ([3]; rats, 30 mg/kg) was 15.7 mg/dL. It also gave a BUN/CREA ([3]; rats, 30 mg/kg) of 78.3 mg/dL, a CA ([3]; rats, 30 mg/kg) of 11.2 mg/dL and a CK ([3]; rats, 30 mg/kg) of 91 U l-1. The CRE ([3]; rats, 30 mg/kg) was 0.2 mg/dL, the EOS ([3]; rats, 30 mg/kg) was 0.3% and the GLOB ([3]; rats, 30 mg/kg) was 0.6 g/dL. For the same compound, the GLU ([3]; rats, 30 mg/kg) was 170 mg/dL, the HCT ([3]; rats, 30 mg/kg) was 40.1% and the HGB ([3]; rats, 30 mg/kg) was 14.3 g/dL. For the same compound, the “K+” value ([3]; rats, 30 mg/kg) was 5.4 mmol/L, the MCH ([3]; rats, 30 mg/kg) was 20.5 pg and the MCHC ([3]; rats, 30 mg/kg) was 35.8 g/dL. The MCV ([3]; rats, 30 mg/kg) was 57 µm3, the MPV ([3]; rats, 30 mg/kg) was 5.7 µm3 and the “NA+” value ([3]; rats, 30 mg/kg) was 136 mmol/L. The NA/K ([3]; rats, 30 mg/kg) was 25.2 mmol/L, the PHOS ([3]; rats, 30 mg/kg) was 9.0 mg/dL and the PLT ([3]; rats, 30 mg/kg) was 869 103 mm-3. For the same compound, the RBC ([3]; rats, 30 mg/kg) was 7.00 103 mm-3, the RDW ([3]; rats, 30 mg/kg) was 13.4% and the TBIL ([3]; rats, 30 mg/kg) was 0.3 mg/dL. The TP ([3]; rats, 30 mg/kg) was 6.0 g/dL, the WBC ([3]; rats, 30 mg/kg) was 11.2 103 mm-3 and the no-observed-adverse-effect level ([3]; rats, i.v. bolus) was 22.5 mg kg^−1 body weight. The no-observed-effect level ([3]; rats, i.v. bolus) was 15 mg kg^−1 body weight, the “maximal-tolerated i.v. bolus dose” value [4] was 15 mg kg^−1 body weight and the C0 ([4]; mouse, plasma, iv, 15 mg kg^−1 i.v. bolus, read-out: extrapolated C0) was 27.3 µg/mL.
